This is an account of results in article PMC8079061 (Pharmaceutical Biology, 2021).

Each structure is given as a SMILES string.

The subject of one data set is RLM. Kind of data set: Inhibition of poziotinib metabolism. In kind it is in vitro ADME, rat.
For data set [1] the following is noted: healthy volunteers, coadministered with paroxetine; ref Ruiz-Garcia et al. [2014]; cited from earlier work.
The target of the next data set is recombinant human CYP2D6 (Homo sapiens, UniProt P10635). Put plainly: Inhibition of poziotinib metabolism. In kind it is in vitro ADME. Particulars: CYP2D6, stated in abstract.
For a further data set, the system named is HLM. Put plainly: Inhibition of poziotinib metabolism. It counts as in vitro ADME, human.
In a further data set the target is recombinant human CYP3A4 (Homo sapiens, UniProt P08684). Kind of data set: Inhibition of poziotinib metabolism. In kind it is in vitro ADME. Particulars: CYP3A4, stated in abstract.
The conditions of data set [2]: patients, combined with paclitaxel and trastuzumab; ref Kim TY et al. [2019]; cited from earlier work.
The format of data set [3] is in vivo, Sprague–Dawley rats.
For data set [4] the following is noted: dogs, oral dose of 0.3 mg/kg poziotinib; ref Kim et al. [2013]; cited from earlier work.
Setting [5] is: rat, preadministered with dacomitinib (10 mg/kg) for two weeks.

Chain of recombinant human CYP2D6 (P10635 whole entry): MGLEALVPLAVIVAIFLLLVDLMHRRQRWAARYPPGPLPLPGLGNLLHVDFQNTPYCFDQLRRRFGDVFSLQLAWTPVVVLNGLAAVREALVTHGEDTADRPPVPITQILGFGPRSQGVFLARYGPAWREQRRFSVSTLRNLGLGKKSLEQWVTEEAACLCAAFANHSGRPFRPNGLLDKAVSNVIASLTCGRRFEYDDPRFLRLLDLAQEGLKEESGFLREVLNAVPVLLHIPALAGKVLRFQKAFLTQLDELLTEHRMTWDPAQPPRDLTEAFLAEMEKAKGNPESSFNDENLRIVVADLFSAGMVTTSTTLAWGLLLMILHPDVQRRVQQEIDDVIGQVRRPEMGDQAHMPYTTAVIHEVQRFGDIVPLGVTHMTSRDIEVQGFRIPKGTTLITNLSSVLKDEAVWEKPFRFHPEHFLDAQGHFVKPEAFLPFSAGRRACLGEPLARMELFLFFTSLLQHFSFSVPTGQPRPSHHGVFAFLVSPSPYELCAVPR
Chain of recombinant human CYP3A4 (P08684 whole entry): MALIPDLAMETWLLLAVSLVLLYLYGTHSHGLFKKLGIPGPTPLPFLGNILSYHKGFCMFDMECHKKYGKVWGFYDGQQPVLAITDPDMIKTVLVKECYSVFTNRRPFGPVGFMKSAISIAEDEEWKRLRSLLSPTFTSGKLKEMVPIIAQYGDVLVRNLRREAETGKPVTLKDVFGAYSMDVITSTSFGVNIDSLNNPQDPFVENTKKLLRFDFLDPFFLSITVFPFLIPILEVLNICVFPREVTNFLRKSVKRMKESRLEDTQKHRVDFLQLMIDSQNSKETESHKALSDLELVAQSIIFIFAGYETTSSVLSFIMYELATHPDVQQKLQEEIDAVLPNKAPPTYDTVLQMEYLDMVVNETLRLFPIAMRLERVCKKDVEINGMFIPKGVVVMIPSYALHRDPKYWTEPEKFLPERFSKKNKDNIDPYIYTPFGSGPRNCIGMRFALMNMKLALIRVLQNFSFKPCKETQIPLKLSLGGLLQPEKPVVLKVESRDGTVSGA

On to `COc1cc2ncnc(Nc3ccc(F)c(Cl)c3)c2cc1NC(=O)/C=C/CN1CCCCC1` [dacomitinib, Dacomitinib], for which the “mechanism of inhibition of poziotinib metabolism” value in the data set with RLM is “mixed inhibitor”; at recombinant human CYP2D6, “mixed way”; in the data set with HLM it was “mixed inhibitor”; on recombinant human CYP3A4, “mixed way”. Further, the Ki stood at 8.18 µM at RLM (M1), 47.5 µM at RLM (M2), 83.7 µM at HLM (M1) and 0.17 µM at HLM (M2). Further, the αKi on RLM (M1) came out at 38.81 µM; at RLM (M2) it was 38.07 µM; on HLM (M1), 93.73 µM. Further, the Inhibition type entry is on record as “Mixed” in the data set on RLM (M1, Lineweaver–Burk plot); “Mixed” with RLM (M2, Lineweaver–Burk plot); “Mixed” with HLM (M1, Lineweaver–Burk plot); “Mixed” with HLM (M2, Lineweaver–Burk plot). For the same compound, the “increase of dacomitinib exposure” value in data set [1] is listed as 37%.
With `C=CC(=O)N1CCC(Oc2cc3c(Nc4ccc(Cl)c(Cl)c4F)ncnc3cc2OC)CC1` [poziotinib, Poziotinib], the “maximum tolerated dose (MTD)” value in data set [2] is on record as 8 mg/day. Besides, the “delay of Tmax of poziotinib after pre-treatment with dacomitinib” value in data set [3] (rat) was around 3 h. The “increase of AUC(0–t) of poziotinib, test group vs control group” value in data set [3] (rat, dacomitinib pre-treatment two weeks, p < 0.01) was 1.6 fold. Also, in data set [3] (setting [5]), the “increase of Tmax of poziotinib, test group vs control group” value was determined as 1.3 fold and the “increase of t1/2 of poziotinib, test group vs control group” value turned out to be 1.6 fold. The adverse effects observed result in data set [3] (rats, poziotinib 10 mg/kg oral with or without dacomitinib) was “No obvious adverse effects were observed”. In data set [4], the time to peak (Tmax) is 0.40 to 1.00 h and the t1/2 was 3.40 to 5.40 h.
